# Data published in article PMC7024302, “Ultrashort Cationic Lipopeptides–Effect of N-Terminal Amino Acid and Fatty Acid Type on Antimicrobial Activity and Hemolysis” (Molecules, 2020).
# Residues, ends and D or L forms follow the SMILES beside them.
# Key:
# [1] = set-up: method as in earlier work; settings: cited from earlier work
# [2] = Determination of peptide hydrophobicity with RP-HPLC (adjusted retention time); assay type: physicochemical; settings: RP-HPLC C18, linear 10–55% acetonitrile over 60 min, 0.1% TFA, 25.0 °C, UV 214 nm, triplicate; for tR’: Table 3, adjusted retention time as hydrophobicity
# How it was run: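 Peptides at 1 g/L in water with 0.1% TFA run on a C18 column (3.0 × 100 mm, 5 µm). Elution with a linear 10–55% acetonitrile gradient over 60 min, 0.1% TFA in both eluents, 0.5 mL/min, 25.0 ± 0.1 °C. Detection at 214 nm, in triplicate.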
# S. aureus ATCC 25923 = assay type: cell-based, Staphylococcus aureus; settings: ATCC 25923, 18 h
# How it was run: (§1)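 CLSI broth microdilution; MHB; inoculum 5 × 10^5 CFU/mL; lipopeptides 0.5–256 µg/mL; 37 °C, 18 h; endpoint visible growth inhibition; n = 3.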
# [3] = tested on: S. aureus ATCC 33591 (MRSA); assay type: cell-based, Staphylococcus aureus; settings: ATCC 33591, 18 h
# How it was run: as §1
# P. aeruginosa ATCC 9027 = assay type: cell-based, Pseudomonas aeruginosa; settings: ATCC 9027, 18 h
# How it was run: as §1
# C. albicans ATCC 10231 = assay type: cell-based, Candida albicans; settings: ATCC 10231, 24 h, pH 7
# [4] = tested on: human red blood cells (hRBCs); assay type: cell-based; settings: red cells of human, 1 h
# How it was run: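 Fresh EDTA-anticoagulated human RBCs, PBS-washed, at 4% (v/v) final were exposed to lipopeptides at 0.5–256 µg/mL for 1 h at 37 °C. Released haemoglobin in supernatant read at 540 nm; PBS as 0% and 1% Triton X-100 as 100% haemolysis. Triplicates.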
# E. faecium ATCC 700221 = assay type: cell-based, Enterococcus faecium; settings: ATCC 700221, 18 h
# How it was run: as §1
# [5] = tested on: K. pneumoniae ATCC 700603; assay type: cell-based, Klebsiella pneumoniae; settings: ATCC 700603, 18 h
# How it was run: as §1
# [6] = tested on: A. baumannii ATCC BAA-1605; assay type: cell-based, Acinetobacter baumannii; settings: ATCC BAA-1605, 18 h
# How it was run: as §1
# K. aerogenes ATCC 13048 = assay type: cell-based, Klebsiella aerogenes; settings: ATCC 13048, 18 h
# How it was run: as §1
tR’ [2] [min],MIC SA (S. aureus ATCC 25923) [µg/mL],MIC S [3] [µg/mL],MIC PA (P. aeruginosa ATCC 9027) [µg/mL],MIC CA (C. albicans ATCC 10231),HC50 [4],MIC E1 (E. faecium ATCC 700221) [µg/mL],MIC K [5] [µg/mL],MIC A [6] [µg/mL],MIC E2 (K. aerogenes ATCC 13048) [µg/mL],"Adjusted retention time ([2]; Table 2, nC = carbon atoms in fatty acid chain) [min]",Structure (SMILES),pKa of the side chain [1]
–,–,–,–,–,–,–,–,–,–,–,"NCCCC[C@H](N)C(=O)O [Lys, lysine]",10.67
40.53,8,8,32,16 µg/mL,31.94 (±1.99) µg/mL,8,256,64,256,–,"CCCCCCCCCCCCCC(=O)NCC(=O)N[C@@H](CCCNC(=N)N)C(=O)N[C@@H](CCCNC(=N)N)C(N)=O [compound 30, C14-GRR-NH2]",–
42.61,16,8,16,8 µg/mL,53.41 (±1.84) µg/mL,8,256,64,256,–,"CCCCCCCCCCCCCC(=O)N1CCC[C@H]1C(=O)N[C@@H](CCCNC(=N)N)C(=O)N[C@@H](CCCNC(=N)N)C(N)=O [compound 74, C14-PRR-NH2]",–
37.67,8,16,32,32 µg/mL,207.62 (±5.27) µg/mL,16,256,64,256,–,"CCCCCCCCCCCC(=O)N[C@@H](CCC)C(=O)N[C@@H](CCCNC(=N)N)C(=O)N[C@@H](CCCNC(=N)N)C(N)=O [compound 69, C12-NvaRR-NH2] (HELM PEPTIDE1{[CCCCCCCCCCCC(=O)[*:2]].[Nva].R.R.[am]}$$$$V2.0)",–
–,8,8,8,16 (>16) µg/mL,>256 µg/mL,8,256,32,256,39.958,"CCCCCCCCCCCC(=O)N[C@@H](CCCC)C(=O)N[C@@H](CCCNC(=N)N)C(=O)N[C@@H](CCCNC(=N)N)C(N)=O [compound 65, C12-NleRR-NH2] (HELM PEPTIDE1{[CCCCCCCCCCCC(=O)[*:2]].[Nle].R.R.[am]}$$$$V2.0)",–
